How the values were obtained:
[1] = tested on: C. elegans; test: Worm survival assay in microfluidics; type: in vivo; conditions: thymol 50 μM, worms treated in microfluidics (conditions mimicking IF), vs vehicle, log rank test
Experimental: A worm suspension is first injected into a microfluidic device. The geometry of the device is optimized for retaining inside the worm culture chamber only adult worms by simply selecting the correct flow rate for the sample injection. Upon isolation of a defined worm population inside the chamber, worms are cultured and treated on-chip with thymol at controlled temperature of 20° C. Worm culture is maintained in the chamber by the perfusion of E. coli. The microfluidic chip is integrated onto an inverted microscope integrated with a camera that continuously records videos (every 10 hours). Images are longitudinally analyzed by different parameters that include readouts of body bends frequency, velocity, curvature and amplitude of the movement at the head, tail and middle of the body, which automatically provide information about worms health span and vitality.

[2] = tested on: C. elegans; test: Worm survival assay on solid agar plate; type: in vivo; conditions: thymol 50 M (so in the source), solid agar plates, n=60 per group, vs vehicle (DMSO 1%), log rank test
Experimental: C. elegans strains were cultured at 20° C. on nematode growth media agar plates seeded with E. coli strain OP50. Thymol was dissolved in DMSO and added at the indicated concentrations just before pouring the plates. Worms were exposed to compounds during the full life from eggs until death. To ensure a permanent exposure to the compound, plates were changed twice a week. The control population was treated with the corresponding concentration of DMSO at 1%. For lifespan measurements, parental F0 L4 worms were grown to reach adulthood and lay eggs on the treatment plates. The derived F1 worms were therefore exposed to compounds during the full life from eggs until death. Adults were daily scored manually as dead or alive. A worm was considered dead if it was not moving spontaneously and it was not responding to a touch on the head. The control population was treated with the corresponding concentration of DMSO at 1%.

In the case of Cc1ccc(C(C)C)c(O)c1 [thymol], the effect on lifespan [1] is reported as “increases lifespan” and the effect on lifespan [2] is reported as “no significant effects on lifespan”.

— patent publication US20240415786A1, “COMPOSITIONS AND METHODS USING AN AUTOPHAGY INDUCER TO ENHANCE INTERMITTENT FASTING” (SOCIETE DES PRODUITS NESTLE S.A., priority 2021, published 2024)
